Test results from US8461362B2, “Protein phosphatase 2A-activating agents” (The Ohio State University Research Foundation, priority 2009, dated 2013).
Read-outs that look alike come from different tables or passages of the source.

Assays:
[1] = tested on: AR mRNA in LNCaP cells; test: RT-PCR of AR mRNA in LNCaP cells; format: cell-based; details: 10 μM
Method: (§1) RNA Isolation and Reverse Transcription (RT)-PCR.
(§2) LNCaP cells were subject to total RNA isolation by using a Trizol reagent (Invitrogen Corporation, CA). RNA concentrations were determined by measuring absorption at 260 nm in a spectrophotometer. Aliquots of 2 μg of total RNA from each sample were reverse transcribed to cDNAs using the iScript cDNA Synthesis Kit (Bio-Rad) according to the manufacturer's instructions. PCR products were resolved electrophoretically in 1.2% agarose gels and visualized by ethidium bromide staining.

[2] = target: T1, PP2A (Homo sapiens, UniProt P67775); test: PP2A immunoprecipitation phosphatase activity assay in drug-treated LNCaP cells; format: cell-based; details: for PP2A phosphatase activity: LNCaP cells, 12 h drug exposure; for PP2A expression (protein level): after drug treatment, Western blot
T1 construct: endogenous in cells; host or cells: LNCaP
Method: PP2A activity in drug-treated cells was determined by using a PP2A Immunoprecipitation Phosphatase Assay Kit (Millipore) according to the manufacturer's instructions. LNCaP cells were exposed to DMSO, VES, or TS-1 at the indicated concentrations in 2.5% FBS supplemented medium for 12 h, and subjected to cell lysis in a phosphate-free lysis buffer containing 20 mmol/L imidazole-HCl, pH 7.0, 2 mM EDTA, 2 mM EGTA, 2 mM AEBSF, 1 mM EDTA, 130 μM bestatin, 14 μM E-64, 1 μM leupeptin, and 0.3 μM aprotinin. The suspension was sonicated (Virtis) at 20% output for 10 sec, followed by centrifugation at 2000×g for 5 min. One-μL aliquots of the supernatants were taken for protein determination by BCA assays, and the remaining supernatants were used for phosphatase activity assays. Aliquots of cell lysates containing 400 μg of proteins were combined with 4 μg of anti-PP2Ac antibody (Millipore), to which was added PP2A assay buffer (20 mmol/L Hepes pH 7.0, 100 mM NaCl) to a final volume of 500 μL followed by 40 μL of Protein A-agarose. Mixtures were incubated at 4° C. for 2 h, and briefly centrifuged. The immunocomplexes were washed and used for the phosphatase activity assay. The amounts of PP2A in the immunocomplexes were determined semi-quantitatively by Western blotting.

[3] = tested on: normal prostate epithelial cells (PrECs); test: MTT viability assay, normal prostate epithelial cells
Method: (§4) LNCaP androgen-dependent (p53^+/+) and PC-3 androgen-nonresponsive (p53^−/−) prostate cancer cells were purchased from the American Type Culture Collection (Manassas, Va.), and cultured in RPMI 1640 medium containing 10% heat-inactivated FBS. […] All cell types were cultured at 37° C. in a humidified incubator containing 5% CO2. Cells in log phase growth were harvested by trypsinization for use in the MTT viability assay. LNCaP cells were plated in poly-D-lysine coated culture flasks in order to assist cell adherence to the surface. Prior to drug treatment, cells were plated in a density of 12,000 cells/cm^2 surface area in the respective culture medium for 24-48 h, followed by individual test agents in 2.5% FBS-supplemented RPMI medium.

[4] = tested on: AR promoter; test: AR promoter-luciferase reporter assay (hAR-Luc) in LNCaP cells; format: cell-based; details: hAR-Luc transfected LNCaP cells, 72 h of exposure
Method: Transfection and Luciferase Assay.
Cells were transfected with 5 μg of the AR-linked luciferase reporter (hAR-Luc) plasmid in an Amaxa Nucleofector using a cell line-specific nucleofector kit according to the manufacturer's protocol (Amaxa Inc. Gaithersburg, Md.) and then seeded in T25 flasks at 3×10^5 cells per flask for 48 h. The transfection efficiency was determined by transfecting cells with 3 μg of pmaxGFP plasmid followed by fluorescence microscopy to detect green fluorescent protein expression. For each transfection, herpes simplex virus (HSV) thymidine kinase promoter-driven Renilla reniformis luciferase was used as an internal control for normalization. For the luciferase reporter gene assay, after transfection, cells were cultured in 24-well plates in 10% FBS-supplemented RPMI 1640 for 48 h, subjected to different treatments in 2.5% FBS-supplemented medium for the indicated times, collected, and lysed with passive lysis buffer (Promega). Aliquots of lysates (50 μL) were mixed with 75 μL of luciferase substrate (Promega) in 96-well plates, and luciferase activities were monitored in a MicroLumaPlus LB96V luminometer (Berthold Technologies, Oak Ridge, Tenn.) with the WinGlow software package. All transfection experiments were carried out in six replicates.

[5] = tested on: Sp1 mRNA and Sp1 target genes VEGF, Mdm2, DNMT1; test: mRNA expression of Sp1 and Sp1 downstream target genes in LNCaP cells; format: cell-based; details: for Sp1 mRNA expression: high doses
Method: as §1, §2

[6] = tested on: Akt, ERK, JNK and p38 phosphorylation in LNCaP cells; test: Western blot of kinase phosphorylation in LNCaP cells; format: cell-based
Method: (§3) Cells cultured in T25 flasks were collected by scraping, and cell pellets were washed once with PBS. Cells were lysed in a lysis buffer consisting of 1% SDS, 10 mM EDTA and 50 mM Tris-HCl, pH 8.1, in the presence of a commercial protease inhibitor cocktail from Aldrich-Sigma (2 mM AEBSF, 1 mM EDTA, 130 μM bestatin, 14 μM E-64, 1 μM leupeptin, and 0.3 μM aprotinin). Following a 10-sec sonication using 20% output in a Virsonic 300 sonicator (Virtis, Gardiner N.Y.) to disrupt cellular organelles and genomic DNA, cell lysates were centrifuged at 15,200×g for 15 minutes. One μL of the suspension was used for protein determination using a colorimetric BCA assay (Pierce, Rockford, Ill.), and to the remaining solution was added an equivalent volume of 2×SDS-polyacrylamide gel electrophoresis sample loading buffer (62.5 mM Tris-HCl, pH 6.8, 4% SDS, 5% β-mercaptoethanol, 20% glycerol, and 0.1% bromophenol blue), and boiled for 5 min. Equal amounts of proteins were resolved in 8% SDS-polyacrylamide gels, and transferred to nitrocellulose membranes using a semidry transfer cell. The transblotted membrane was washed twice with Tris-buffered saline containing 0.1% Tween 20 (TBST). After blocking with TBST containing 5% nonfat milk for 40 min, the membrane was incubated with the appropriate primary antibody in TBST-1% nonfat milk at 4° C. overnight. […]

[7] = tested on: Akt, ERK, JNK and p38 phosphorylation in PC-3 cells; test: Western blot of kinase phosphorylation in PC-3 cells; format: cell-based
Method: as §3

[8] = tested on: normal prostate epithelial cells (PrECs)
Method: as §4

T1 sequence (P67775 whole entry): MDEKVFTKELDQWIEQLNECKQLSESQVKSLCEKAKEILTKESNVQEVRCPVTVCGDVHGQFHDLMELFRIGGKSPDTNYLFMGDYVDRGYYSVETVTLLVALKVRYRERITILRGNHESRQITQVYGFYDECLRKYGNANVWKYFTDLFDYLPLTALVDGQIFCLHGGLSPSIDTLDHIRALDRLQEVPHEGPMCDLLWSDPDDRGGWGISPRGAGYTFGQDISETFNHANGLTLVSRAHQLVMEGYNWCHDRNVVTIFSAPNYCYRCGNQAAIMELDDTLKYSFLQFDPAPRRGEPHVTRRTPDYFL

Structure (SMILES)	AR mRNA transcript level [1]	PP2A phosphatase activity [2]	PP2A expression (protein level) [2]	antiproliferative effect on PrECs relative to malignant cells [3]	AR gene transcription (luciferase reporter activity) [4]	transcription of Sp1 downstream target genes (VEGF, Mdm2, DNMT1) [5]	Sp1 mRNA expression [5]	phosphorylation levels of Akt, ERK, JNK, p38 [6]	phosphorylation levels of Akt, ERK, JNK, p38 [7]	antiproliferative effect on PrECs relative to malignant cells [8]
Cc1c(C)c2c(c(C)c1OC(=O)CCC(=O)O)CCC(C)(CCCC(C)CCCC(C)C)O2 (stereo not drawn) [TS-1, succinic acid mono-[2-(4,8-dimethyl-nonyl)-2,5,7,8-tetramethylchroman-6-yl]ester]	time-dependent reduction	increase PP2A phosphatase activity	without affecting its expression	resistant	dose-dependent inhibitory effect	dose-dependent transcriptional repression	remained unaltered	dose-dependent reduction in the phosphorylation levels of all four kinases examined	also noted in PC-3 cells	
Cc1c(C)c2c(c(C)c1OC(=O)CCC(=O)O)CC[C@@](C)(CCC[C@H](C)CCC[C@H](C)CCCC(C)C)O2 [VES, α-tocopheryl succinate]	time-dependent reduction	increase PP2A phosphatase activity	without affecting its expression		dose-dependent inhibitory effect	dose-dependent transcriptional repression	remained unaltered	dose-dependent reduction in the phosphorylation levels of all four kinases examined	also noted in PC-3 cells	resistant
